Data reported in patent US9452195B2, “Use of CHEC peptides to treat neurological and cardiovascular diseases and disorders” (Drexel University, priority 2010, dated 2016).

Legend:
phospholipase A2 (sPLA2) = conditions: statement referring to earlier patents and applications; cited from earlier work
[1] = tested on: KA induced motor seizures in rats; assay: Kainic acid (KA) induced motor seizures in rats, graded by Racine scale; type: in vivo, rat; parameters: key to Max Seizure Stage: 1: hypoactivity, mouth and facial automatism; 2: head nodding and mastication; 3: forelimb clonus without rearing; 4: bilateral forelimb clonus and rearing; 5: rearing and loss of posture; Status epilepticus: stage 4-5 lasting for 30 min,
Method: Kainic acid (KA) was administered intraperitoneal (IP) to rats at doses ranging from […]. Rats age postnatal day (P) 12-15 were administered 2 mg/kg KA. Rats age P35-40 were administered 6 mg/kg KA. The KA was delivered in a constant volume of phosphate buffer (5 ml/kg) and reliably produced motor seizure activity.
Following IP administration of KA, rats were video-recorded for 3 hours, and then daily for 3 hours. The video recordings are later scored blind. The severity and latency of seizures is graded for P35 rats by a classical scale shown in Table 1 (Racine, 1972, Electroencephalog. Clin. Neurophysiol. 32:281-294).
Rats (250-300 g) are done in pairs and administered either a control peptide/vehicle or CHEC peptide in vehicle at various intervals pre- or post KA treatment. Control or CHEC peptide are administered either 4, 2 or 0.5 hours pre-KA or 0.25, and 0.5 hrs post-KA. The effects of CHEC-7 and CHEC-9 are compared because the peptides have different pharmakinetic profiles in rat.
Forty minutes prior to KA administration, the rats were administered either control peptide or CHEC-9 at the indicated dosages and routes of administration. The resulting motor seizures were graded as described elsewhere herein. […] In one set of experiments, rats were pre-fed lecithin or phosphatidylcholine prior to administering the KA.

[2] = tested on: hippocampal neuronal activity in kainic acid-treated rats; assay: Multiunit activity in CA1 cell field of hippocampus of kainic acid treated rats; type: in vivo, rat; conditions: CHEC-9 1 mg/kg orally 40 min before KA 10 mg/kg IP
From the text: FIG. 1, is a graph depicting multiunit activity recorded from the CA1 cell field of the hippocampus of awake, freely moving kainic acid-treated rats that have been treated either with CHEC-9 or vehicle. Multiunit activity is presented as impulses recorded per second and provided as a percentage of baseline activity measured prior to seizure induction.
Rats were implanted with a multichannel electrode bundle placed in the CA1 cell field of the hippocampus one week prior to the experiment. Baseline hippocampal neuronal activity (impulses per second) was collected during a 30 minute control period. After 30 minutes of baseline neuronal activity was collected, either CHEC-9 (1 mg/kg) or vehicle was administered orally 40 min prior to IP administration of kainic acid (10 mg/kg). The duration of the KA administration varied. Neuronal activity in response to KA administration is presented as % of baseline activity (FIG. 1).

neuron = conditions: cited from earlier work

For CHEASQC [CHEC-7], which “inhibition of phospholipase A2 / sPLA2” value (phospholipase A2 (sPLA2)) is on record?
Its value is “even more potent as a sPLA2 inhibitor than CHEC-9”.

Which results are given for CHEASAAQC [CHEC-9]?
Max Seizure Stage ([1]; individual rat, C9 0.5 mg/kg sc 40 min before KA 6 mg/kg ip): 2; Max Seizure Stage ([1]; individual rat, C9 1.0 mg/kg po 40 min before KA 5 mg/kg ip): 1; Max Seizure Stage ([1]; individual rats, C9 0.5 mg/kg sc 40 min before KA 5 mg/kg ip): 1; Max Seizure Stage ([1]; individual rats, C9 1.0 mg/kg po 40 min before KA 10 mg/kg ip, female rats): 3; Max Seizure Stage ([1]; individual rats, C9 1.0 mg/kg po 40 min before KA 10 mg/kg ip, male rats): 1; likelihood of severe motor seizures versus vehicle control ([1]; rats 250-300 g, peptide given 40 min before KA): vehicle control were more likely to exhibit severe motor seizures than rats that were administered CHEC-9; seizure symptoms by the end of the experiment ([2]; vehicle rat reached status epilepticus): no obvious symptoms; effect of KA on neuronal activity (multiunit activity, % of baseline) ([2]; versus vehicle): much smaller effect of KA on neuronal activity; inhibition of phospholipase A2 / sPLA2 (phospholipase A2 (sPLA2)): inhibit phospholipase A2

With CAHAQAESC [CHEC-9 peptide variant] as the substance, how does the “inhibition of phospholipase A2 / sPLA2” value (phospholipase A2 (sPLA2)) read?
Its value is “inhibit phospholipase A2”.

What about the neuron protective activity (neuron) of the same substance?
The neuron protective activity was “also has neuron protective activity”.
